Laboratory results from US12442035B2, “Compositions and methods for detecting antibiotic responsive mRNA expression signatures and uses thereof” (THE BROAD INSTITUTE, INC., priority 2018, dated 2025).

Key:
[1] = test system: A. baumannii clinical isolates; experiment: Standard broth microdilution MIC; format: cell-based, Acinetobacter baumannii
From the text: (§3) All strains in this study (Table 7) were obtained from clinical or reference microbiological laboratories, including both local hospitals and MDRO strain collections from the Centers for Disease Control's Antibiotic Resistance Isolate Bank (see e.g., World Wide Web at (www).cdc.gov/ARIsolateBank/) and the New York State Department of Health.

[2] = test system: A. baumannii clinical isolates; experiment: RNA-Seq transcriptional response to antibiotic exposure, GO term enrichment; format: cell-based, Acinetobacter baumannii; conditions: CLSI breakpoint concentration, 0, 10, 30, 60 minutes
From the text: (§1) Fisher's combined probability test was used to select only those genes whose expression after antibiotic treatment was statistically distinguishable from its expression at any timepoint in the untreated samples. Gene ontology (GO) terms were assigned using blast2GO (version 1.4.4), with hypergeometric testing for enrichment. For each pathogen-antibiotic pair, the fold-change threshold in DESeq2 used to test statistical significance was increased to select 60-100 antibiotic-responsive transcripts with maximal stringency, a number readily accommodated by the NanoString® assay format. […] As with responsive genes, the fold-change threshold was varied in order to select the top 10-20 control transcripts. […] See Supplemental Methods sections below for further details.
(§2) After antibiotic treatment as described in the above Materials and Methods section, cells were pelleted, resuspended in 0.5 mL Trizol reagent (ThermoFisher Scientific), transferred to 1.5 mL screw-cap tubes containing 0.25 mL of 0.1 mm diameter Zirconia/Silica beads (BioSpec Products), and lysed mechanically via bead-beating for 3-5 one-minute cycles on a Minibeadbeater-16 (BioSpec) or one 90-second cycle at 10 m/sec on a FastPrep (MP Bio). After addition of 0.1 mL chloroform, each sample tube was mixed thoroughly by inversion, incubated for 3 minutes at room temperature, and centrifuged at 12,000×g for 15 minutes at 4° C. […]

[3] = test system: E. coli clinical isolates; experiment: as above; format: cell-based, Escherichia coli; conditions: CLSI breakpoint concentration, 0, 10, 30, 60 minutes
[4] = test system: K. pneumoniae clinical isolates; experiment: as above; format: cell-based, Klebsiella pneumoniae; conditions: CLSI breakpoint concentration, 0, 10, 30, 60 minutes
From the text: as §1, §2

[5] = test system: K. pneumoniae clinical isolates; experiment: Standard broth microdilution MIC; format: cell-based, Klebsiella pneumoniae
From the text: as §3

[6] = test system: E. coli clinical isolates; experiment: Standard broth microdilution MIC; format: cell-based, Escherichia coli
From the text: as §3

gentamicin
gent MIC ([1]; A. baumannii strain AR0033): 32 µg/mL | gent MIC ([1]; A. baumannii strain AR0035): 16 µg/mL | gent MIC ([1]; A. baumannii strain AR0037): >32 µg/mL | gent MIC ([1]; A. baumannii strain AR0045): >32 µg/mL | gent MIC ([1]; A. baumannii strain AR0052): 32 µg/mL | gent MIC ([1]; A. baumannii strain AR0056): >32 µg/mL | gent MIC ([1]; A. baumannii strain AR0063): 4 µg/mL | gent MIC ([1]; A. baumannii strain AR0070): >32 µg/mL | gent MIC ([1]; A. baumannii strain AR0078): >32 µg/mL | gent MIC ([1]; A. baumannii strain AR0101): 8 µg/mL | gent MIC ([1]; A. baumannii strain AR0102): >32 µg/mL | gent MIC ([1]; A. baumannii strain ATCC 17978): ≤0.5 µg/mL | gent MIC ([1]; A. baumannii strain RB197 (deriv_S)): ≤0.5 µg/mL | gent MIC ([1]; A. baumannii strain RB198): 32 µg/mL | gent MIC ([1]; A. baumannii strain RB200 (deriv_R)): >32 µg/mL | gent MIC ([1]; A. baumannii strain RB201): 1 µg/mL | gent MIC ([1]; A. baumannii strain RB202): >32 µg/mL | gent MIC ([1]; A. baumannii strain RB203): 4 µg/mL | gent MIC ([1]; A. baumannii strain RB204 (deriv_R)): >32 µg/mL | gent MIC ([1]; A. baumannii strain RB205 (deriv_S)): 2 µg/mL | gent MIC ([1]; A. baumannii strain RB206): >32 µg/mL | Gene ontology enrichment of antibiotic-responsive transcripts [2]: induced the unfolded protein response and quinone binding | Gene ontology enrichment of antibiotic-responsive transcripts [3]: induced the unfolded protein response and quinone binding | Gene ontology enrichment of antibiotic-responsive transcripts [4]: induced the unfolded protein response and quinone binding | gent MIC ([5]; KpGent strain AR0042): 32 µg/mL | gent MIC ([5]; KpGent strain AR0043): 1 µg/mL | gent MIC ([5]; KpGent strain AR0076): 32 µg/mL | gent MIC ([5]; KpGent strain AR0080): 2 µg/mL | gent MIC ([5]; KpGent strain ATCC 700721): >32 µg/mL | gent MIC ([5]; KpGent strain BAC0800007138): 0.5 µg/mL | gent MIC ([5]; KpGent strain BIDMC_2A): 2 µg/mL | gent MIC ([5]; KpGent strain BIDMC_34): 32 µg/mL | gent MIC ([5]; KpGent strain BIT-10): 4 µg/mL | gent MIC ([5]; KpGent strain BWH_15): 4 µg/mL | gent MIC ([5]; KpGent strain IDR1600031102-01-00): >32 µg/mL | gent MIC ([5]; KpGent strain IDR1600039511-01-00): 0.5 µg/mL | gent MIC ([5]; KpGent strain MGH_30): 1 µg/mL | gent MIC ([5]; KpGent strain MGH_35): >16 µg/mL | gent MIC ([5]; KpGent strain MGH_63): >16 µg/mL | gent MIC ([5]; KpGent strain RB012): 32 µg/mL | gent MIC ([5]; KpGent strain RB040): 0.5 µg/mL | gent MIC ([5]; KpGent strain RB042): 2 µg/mL | gent MIC ([5]; KpGent strain RB121): 1 µg/mL | gent MIC ([5]; KpGent strain RB122): 128 µg/mL | gent MIC ([5]; KpGent strain UCI_7): 0.5 µg/mL | gent MIC ([5]; KpGent strain UCI_13): 0.5 µg/mL | gent MIC ([5]; KpGent strain UCI_37): 16 µg/mL | gent MIC ([5]; KpGent strain UCI_63): 4 µg/mL | gent MIC ([5]; KpGent strain UCI_67): 8 µg/mL | gent MIC ([6]; E. coli strain AR0055): 64 µg/mL | gent MIC ([6]; E. coli strain AR0061): 32 µg/mL | gent MIC ([6]; E. coli strain AR0081): 0.5 µg/mL | gent MIC ([6]; E. coli strain AR0084): 0.5 µg/mL | gent MIC ([6]; E. coli strain AR0085): 2 µg/mL | gent MIC ([6]; E. coli strain BAA2469): 64 µg/mL | gent MIC ([6]; E. coli strain BAC0800005647): 1 µg/mL | gent MIC ([6]; E. coli strain IDR1300027657): 64 µg/mL | gent MIC ([6]; E. coli strain IDR1300034680): 1 µg/mL | gent MIC ([6]; E. coli strain IDR1600047120): 64 µg/mL | gent MIC ([6]; E. coli strain MGH_57): 0.5 µg/mL | gent MIC ([6]; E. coli strain RB001 (deriv_S)): 1 µg/mL | gent MIC ([6]; E. coli strain RB051 (deriv_R)): 256 µg/mL | gent MIC ([6]; E. coli strain RB057 (deriv_R)): 256 µg/mL | gent MIC ([6]; E. coli strain RB075 (deriv_S)): 0.5 µg/mL | gent MIC ([6]; E. coli strain RB765): 64 µg/mL | gent MIC ([6]; E. coli, printed on the continuation line of strain RB075, above RB076, strain unclear): 1 µg/mL
